Experimental findings from patent US7858630B2, “D3 and 5-HT2A receptor modulators” (Hoffmann-La Roche Inc., priority 2008, dated 2010) are described below.

Assay [1] deals with T1, human dopamine D2 receptor (Homo sapiens, UniProt P14416).
T1 construct: expressed in transfected cells; host or cells: HEK-293 EBNA cells, transient transfection; membrane preparation
Briefly: Radioligand binding ([3H]-spiperone) to membranes of HEK-293 EBNA cells expressing human D2 receptor. The following applies: human D2, 0.7 nM [3H]-spiperone, HEK-293 EBNA membranes, 1 h at RT. The procedure:
(§1) The ability of the compounds to bind to the 5-HT2A, D3 and D2 receptors was determined using radioligand binding to cloned receptors selectively expressed in HEK-293 EBNA cells.
(§2) Membrane Preparation for Human D2, Human D3 and Human 5-HT2A Receptors
(§3) HEK-293 EBNA cells were transiently transfected with expression plasmids encoding for the human D2 or D3 dopamine- or for the human 5-HT2A serotonin receptor, respectively. The cells were harvested 48 h post-transfection, washed three times with cold PBS and stored at −80° C. prior to use. The pellet was suspended in cold 50 mM Tris-HCl buffer containing 10 mM EDTA (pH 7.4) and homogenized with a Polytron (Kinematica AG, Basel, Switzerland) for 20-30 sec at 12.000 rpm. After centrifugation at 48.000×g for 30 min at 4° C., the pellet was resuspended in cold 10 mM Tris-HCl buffer containing 0.1 mM EDTA (pH 7.4), homogenized, and centrifuged as above. This pellet was further resuspended in a smaller volume of ice cold 10 mM Tris-HCl buffer containing 0.1 mM EDTA (pH 7.4) and homogenized with a Polytron for 20-30 sec at 12.000 rpm. The protein content of this homogenate was determined with the Bio-Rad (Bradford) Protein Assay (Biorad Laboratories GmbH, München, Germany) according to the instructions of the manufacturer using gamma globulin as the standard. This homogenate was stored at −80° C. in aliquots and thawed immediately prior to use.
(§4) Radioligand Binding Assay Conditions
(§5) Aliquots of membrane preparations were thawed at RT, resupended in assay buffer (D2, D3: 50 mM Tris-HCl, 120 mM NaCl, 5 mM MgCl2, 1 mM EDTA, 5 mM KCl, 1.5 mM CaCl2, pH=7.4; 5-HT2A: 50 mM Tris-HCl, 10 mM MgCl2, 1 mM EGTA, pH=7.4), homogenized with a Polytron for 20-30 sec at 12.000 rpm and adjusted to a final concentration of approximately 7.5 μg protein/well (D2, D3) and 15 μg protein/well (5-HT2A), respectively.
(§6) The binding affinity (Ki) of the compounds was determined using radioligand binding. Membranes were incubated in a total volume of 200 μl with a fixed concentration of radioligand (final concentration approximately 0.7 nM [^3H]-spiperone for D2, 0.5 nM [^3H]-spiperone for D3, and 1.1 nM [^3H]-ketanserin for 5-HT2A) and ten concentrations of test compound in ranging between 10 μM-0.1 nM for 1 h at RT. At the end of the incubation, the reaction mixtures were filtered on to unifilter 96-well white microplates with bonded GF/C filters (Packard BioScience, Zurich, Switzerland; preincubated for 1 h in 0.1% polyethylenimine (PEI) in assay buffer) with a Filtermate 196 harvester (Packard BioScience) and washed 3 times with cold assay buffer. The nonspecific binding was determined with equally composed reaction mixtures in the presence of 10 μM unlabelled spiperone. Per well 45 μl of Microscint 40 (Perkin Elmer, Schwerzenbach, Switzerland) was added, plates for sealed, shaken for 20 min and counted for 3 min on a Topcount Microplate Scintillation Counter (Canberra Packard SA, Zurich, Switzerland) with quenching correction.
(§7) The CPM value for each duplicate of a concentration of competing compound was averaged (y1), then the % specific binding was calculated according to the equation (((y1−non-specific)/(total binding-non-specific))×100). Graphs were plotted with the % specific binding using XLfit, a curve fitting program that iteratively plots the data using Levenburg Marquardt algorithm. The single site competition analysis equation used was y=A+((B−A)/(1+((x/C)^D))), where y is the % specific binding, A is the minimum y, B is the maximum y, C is the IC50, x is the log10 of the concentration of the competing compound and D is the slope of the curve (the Hill Coefficient). From these curves the IC50 (inhibition concentration at which 50% specific binding of the radioligand was displaced) and Hill coefficient were determined. […]

In assay [2] the target is T2, human serotonin 5-HT2A receptor (Homo sapiens, UniProt P28223).
T2 construct: expressed in transfected cells; host or cells: HEK-293 EBNA cells, transient transfection; membrane preparation
Briefly: Radioligand binding ([3H]-ketanserin) to membranes of HEK-293 EBNA cells expressing human 5-HT2A receptor. Particulars: 1.1 nM [3H]-ketanserin, HEK-293 EBNA membranes, 1 h at RT. The method, then: as §1, §2, §3, §4, §5, §6, §7

In assay [3] the target is T3, human dopamine D3 receptor (Homo sapiens, UniProt P35462).
T3 construct: expressed in transfected cells; host or cells: HEK-293 EBNA cells, transient transfection; membrane preparation
As to the kind of experiment: Radioligand binding ([3H]-spiperone) to membranes of HEK-293 EBNA cells expressing human D3 receptor. The following applies: human D3, 0.5 nM [3H]-spiperone, HEK-293 EBNA membranes, 1 h at RT. The procedure:
as §1, §2, §3, §4, §5, §6, §7

T2 sequence (P28223 whole entry): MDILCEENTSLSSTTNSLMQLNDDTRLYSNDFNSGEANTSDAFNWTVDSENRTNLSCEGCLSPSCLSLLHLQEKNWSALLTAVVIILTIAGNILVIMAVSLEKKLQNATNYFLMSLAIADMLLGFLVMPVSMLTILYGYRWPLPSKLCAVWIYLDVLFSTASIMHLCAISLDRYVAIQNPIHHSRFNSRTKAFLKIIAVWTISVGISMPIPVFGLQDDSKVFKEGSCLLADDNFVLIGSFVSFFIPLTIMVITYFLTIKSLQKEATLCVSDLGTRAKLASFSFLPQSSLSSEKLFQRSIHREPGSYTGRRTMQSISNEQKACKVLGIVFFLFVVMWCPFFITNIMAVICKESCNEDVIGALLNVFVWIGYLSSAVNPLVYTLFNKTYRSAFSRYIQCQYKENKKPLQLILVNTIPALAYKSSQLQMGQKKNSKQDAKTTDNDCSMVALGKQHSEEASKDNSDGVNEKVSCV
T3 sequence (P35462 whole entry): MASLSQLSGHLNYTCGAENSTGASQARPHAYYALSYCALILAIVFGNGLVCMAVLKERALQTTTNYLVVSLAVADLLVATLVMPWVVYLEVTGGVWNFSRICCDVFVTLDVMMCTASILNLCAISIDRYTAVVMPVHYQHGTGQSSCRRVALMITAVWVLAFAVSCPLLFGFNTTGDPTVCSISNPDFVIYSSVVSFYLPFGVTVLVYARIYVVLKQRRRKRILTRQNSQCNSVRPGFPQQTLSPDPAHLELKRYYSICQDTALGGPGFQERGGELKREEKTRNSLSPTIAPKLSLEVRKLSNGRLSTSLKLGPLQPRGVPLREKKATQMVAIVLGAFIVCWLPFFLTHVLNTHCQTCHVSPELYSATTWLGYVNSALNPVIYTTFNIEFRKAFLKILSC
T1 sequence (P14416 whole entry): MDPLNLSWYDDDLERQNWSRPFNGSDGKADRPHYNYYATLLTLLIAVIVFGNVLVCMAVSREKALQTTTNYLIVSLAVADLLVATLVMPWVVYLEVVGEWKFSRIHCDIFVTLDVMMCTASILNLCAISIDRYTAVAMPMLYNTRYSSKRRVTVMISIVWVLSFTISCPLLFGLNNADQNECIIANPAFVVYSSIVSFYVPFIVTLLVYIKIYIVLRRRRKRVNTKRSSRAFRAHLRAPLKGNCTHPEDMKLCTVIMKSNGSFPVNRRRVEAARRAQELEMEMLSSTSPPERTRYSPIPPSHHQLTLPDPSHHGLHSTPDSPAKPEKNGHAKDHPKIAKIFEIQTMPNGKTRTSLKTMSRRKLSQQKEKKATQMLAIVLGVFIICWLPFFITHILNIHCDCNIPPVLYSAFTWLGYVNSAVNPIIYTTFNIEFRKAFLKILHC

`O=C(CC1CC1)N[C@H]1CC[C@H](CCN2CCN(c3noc4cc(F)c(Cl)cc34)CC2)CC1` [Example 75, N-trans-(4-{2-[4-(5-Chloro-6-fluoro-benzo[d]isoxazol-3-yl)-piperazin-1-yl]-ethyl}-cyclohexyl)-2-cyclopropyl-acetamide]: the Ki (usually the equilibrium dissociation constant of an inhibitor or competing ligand from its target) was 1.5 µM in assay [1], 0.00592 µM in assay [2] and 0.00165 µM in assay [3].

As to `CC1(C)C[C@@H](CC(=O)N[C@H]2CC[C@H](CCN3CCN(c4noc5ccc(F)cc45)CC3)CC2)CCO1` [Example 22, 2-((S)-2,2-Dimethyl-tetrahydro-pyran-4-yl)-N-(4-{2-[4-(5-fluoro-benzo[d]isoxazol-3-yl)-piperazin-1-yl]-ethyl}-cyclohexyl)-acetamide], the Ki is 1.03 µM in assay [1], 0.0327 µM in assay [2] and 0.00781 µM in assay [3].

Turning to `COC1CCC(C(=O)N[C@H]2CC[C@H](CCN3CCN(c4noc5ccc(F)cc45)CC3)CC2)CC1` (stereo partly drawn) [Example 13, 4-Methoxy-cyclohexanecarboxylic acid N-trans-(4-{2-[4-(5-fluoro-benzo[d]isoxazol-3-yl)-piperazin-1-yl]-ethyl}-cyclohexyl)-amide], the Ki in assay [1] is 3.44 µM; in assay [2] it was 0.0351 µM; in assay [3] it was 0.0414 µM.

Take `O=C(CC1CCOCC1)N[C@H]1CC[C@H](CCN2CCN(c3noc4cc(F)ccc34)CC2)CC1` [Example 112, N-trans-(4-{2-[4-(6-Fluoro-benzo[d]isoxazol-3-yl)-piperazin-1-yl]-ethyl}-cyclohexyl)-2-(tetrahydro-pyran-4-yl)-acetamide]: the Ki in assay [1] stood at 0.119 µM; in assay [2], 0.00351 µM; in assay [3] it was 0.00433 µM.

In the case of `O=C(N[C@H]1CC[C@H](CCN2CCN(c3noc4cc(Cl)ccc34)CC2)CC1)C1CCOCC1` [Example 32, Tetrahydro-pyran-4-carboxylic acid N-trans-(4-{2-[4-(6-chloro-benzo[d]isoxazol-3-yl)-piperazin-1-yl]-ethyl}-cyclohexyl)-amide], the inhibitory constant (Ki) in assay [1] is 3.04 µM; in assay [2], 0.00237 µM; in assay [3] it was 0.0159 µM.

As for `COCCC(=O)N[C@H]1CC[C@H](CCN2CCN(c3noc4cc(C)ccc34)CC2)CC1` [Example 98, 3-Methoxy-N-trans-(4-{2-[4-(6-methyl-benzo[d]isoxazol-3-yl)-piperazin-1-yl]-ethyl}-cyclohexyl)-propionamide], the Ki was found to be 0.222 µM in assay [1], 0.00521 µM in assay [2] and 0.00742 µM in assay [3].

On to `Cc1cc2c(N3CCN(CC[C@H]4CC[C@H](NC(=O)C[C@H]5COCCO5)CC4)CC3)noc2cc1F` [Example 115, 2-(S)-[1,4]Dioxan-2-yl-N-trans-(4-{2-[4-(6-fluoro-5-methyl-benzo[d]isoxazol-3-yl)-piperazin-1-yl]-ethyl}-cyclohexyl)-acetamide], for which the Ki was greater than 9.7 µM in assay [1], 0.01 µM in assay [2] and 0.038 µM in assay [3].

For `O=C(CC1CCOCC1)N[C@H]1CC[C@H](CCN2CCN(c3noc4cc(Cl)ccc34)CC2)CC1` [Example 40, N-trans-(4-{2-[4-(6-Chloro-benzo[d]isoxazol-3-yl)-piperazin-1-yl]-ethyl}-cyclohexyl)-2-(tetrahydro-pyran-4-yl)-acetamide], the Ki in assay [1] was 1.08 µM; in assay [2], 0.0113 µM; in assay [3], 0.00702 µM.

With `O=C(N[C@H]1CC[C@H](CCN2CCN(c3noc4cc(Cl)ccc34)CC2)CC1)[C@H]1CCOC1` [Example 46, (S)-Tetrahydro-furan-3-carboxylic acid (4-{2-[4-(6-chloro-benzo[d]isoxazol-3-yl)-piperazin-1-yl]-ethyl}-cyclohexyl)-amide], the Ki in assay [1] was determined as 0.488 µM; in assay [2], 0.0109 µM; in assay [3], 0.0209 µM.

Regarding `CS(=O)(=O)CC(=O)N[C@H]1CC[C@H](CCN2CCN(c3noc4cc(F)c(Cl)cc34)CC2)CC1` [Example 89, N-trans-(4-{2-[4-(5-Chloro-6-fluoro-benzo[d]isoxazol-3-yl)-piperazin-1-yl]-ethyl}-cyclohexyl)-2-methanesulfonyl-acetamide], the values for the Ki in assay [1], in assay [2] and in assay [3] were 11.2 µM, 0.00289 µM and 0.00572 µM, respectively.

Take `O=C(N[C@H]1CC[C@H](CCN2CCN(c3noc4cc(F)c(Cl)cc34)CC2)CC1)C1CC(Cl)C1` (stereo partly drawn) [Example 83, 3-Chloro-cyclobutanecarboxylic acid N-trans-(4-{2-[4-(5-chloro-6-fluoro-benzo[d]isoxazol-3-yl)-piperazin-1-yl]-ethyl}-cyclohexyl)-amide]: the Ki is 11.1 µM in assay [1], 0.00855 µM in assay [2] and 0.00585 µM in assay [3].

Consider `CCC(=O)N[C@H]1CC[C@H](CCN2CCN(c3noc4cc(Cl)ccc34)CC2)CC1` [Example 41, N-trans-(4-{2-[4-(6-Chloro-benzo[d]isoxazol-3-yl)-piperazin-1-yl]-ethyl}-cyclohexyl)-propionamide], for which the inhibition constant (Ki) in assay [1] was determined as 0.675 µM; in assay [2], 0.0109 µM; in assay [3], 0.0087 µM.

For the compound `O=C(CC(F)(F)F)N[C@H]1CC[C@H](CCN2CCN(c3noc4cc(Cl)ccc34)CC2)CC1` [Example 53, N-trans-(4-{2-[4-(6-Chloro-benzo[d]isoxazol-3-yl)-piperazin-1-yl]-ethyl}-cyclohexyl)-3,3,3-trifluoro-propionamide], the Ki in assay [1] was found to be 0.172 µM; in assay [2] it was 0.00514 µM; in assay [3] it was 0.00274 µM.

`O=C(C[C@@H]1CCCCO1)N[C@H]1CC[C@H](CCN2CCN(c3noc4cc(Cl)ccc34)CC2)CC1` [Example 50, N-trans-(4-{2-[4-(6-Chloro-benzo[d]isoxazol-3-yl)-piperazin-1-yl]-ethyl}-cyclohexyl)-2-(S)-tetrahydro-pyran-2-yl-acetamide]: the Ki was determined as 1.16 µM in assay [1], 0.00478 µM in assay [2] and 0.0237 µM in assay [3].

As for `CC(=O)N[C@H]1CC[C@H](CCN2CCN(c3noc4cc(F)c(F)cc34)CC2)CC1` [Example 56, N-trans-(4-{2-[4-(5,6-Difluoro-benzo[d]isoxazol-3-yl)-piperazin-1-yl]-ethyl}-cyclohexyl)-acetamide], the results for the Ki in assay [1], in assay [2] and in assay [3] were 0.38 µM, 0.012 µM and 0.00583 µM, respectively.

For `COCC(=O)N[C@H]1CC[C@H](CCN2CCN(c3noc4ccc(F)cc34)CC2)CC1` [Example 9, N-trans-(4-{2-[4-(5-Fluoro-benzo[d]isoxazol-3-yl)-piperazin-1-yl]-ethyl}-cyclohexyl)-2-methoxy-acetamide], the Ki in assay [1] was found to be 1.86 µM; in assay [2], 0.0233 µM; in assay [3], 0.00749 µM.

On to `O=C(CC(F)(F)F)N[C@H]1CC[C@H](CCN2CCN(c3noc4cc(F)c(Cl)cc34)CC2)CC1` [Example 93, N-trans-(4-{2-[4-(5-Chloro-6-fluoro-benzo[d]isoxazol-3-yl)-piperazin-1-yl]-ethyl}-cyclohexyl)-3,3,3-trifluoro-propionamide], for which the Ki in assay [2] stood at 0.006 µM; in assay [3], 0.00196 µM.
